The text below walks through data of patent US9670223B2, “Compounds with super-aspirin effects” (SOLVOTRIN THERAPEUTICS LTD., priority 2011, dated 2017).

Structures are written as SMILES. Where two headings read alike, the source gives them in different places. Bounds are passed on as bounds.

Data set [1] relates to 59M cells. The experiment in a line: Tumour cell-induced platelet aggregation (TCIPA), static conditions, 59M. The data set is classed as cell-based, human. The conditions noted are these: static, WP, 300 and 500 μM, 59M 1×10^3/ml. The source says:
ISAS meanwhile is hydrolysed to aspirin and salicylic acid. […] The structure of platelet-tumor cell aggregates was studied using phase-contrast microscopy (Alonso-Escolano et al., 2004; Jurasz et al., 2001). […] Aliquots of each sample were then taken for phase-contrast microscopy examination using an Olympus CKX41 microscope (Olympus America Inc., […].). Photomicrographs were captured using a digital camera and MicroFire (Olympus America Inc.) software (Alonso-Escolano et al., 2004; Jurasz et al., 2001).

In data set [2] the test system is 59M cells. The experiment in a line: Flow-mediated TCIPA using an ultrasound standing wave trap. The conditions noted are these: 500 μM, 59M cell cluster. The data set is classed as cell-based, human. The source says: The ultrasound trap had three essential features: a transducer (Ferroperm, Kvistgard, Denmark) in a housing of radial symmetry, an aqueous phase and a reflector that provided optical access from above. The trap was driven with a function generator (Hewlett Packard 33120A, UK). Microscopic observation occurred with a fast, high-resolution XM10 camera (Soft Imaging System, SIS, GmbH) mounted on an Olympus BX51M reflection epi-fluorescence microscope. Images were captured by a standard PC equipped with the Cell-D image acquisition software (Soft Imaging System, SIS, GmbH).
The experimental procedure was as follows: 59M cells were introduced into the trap, the acoustic field (2.13 MHz, 0.85 MPa) was initiated and cell clusters were allowed to form. Clusters remained levitated in suspension for 10 min. Washed platelets (2.5×10^8/ml) were introduced into the trap at a flow rate of 3 μl/min. Perfusion of washed platelets around the cluster proceeded following initial adhesion of platelets to the periphery of the cluster.
To study the effect of aspirin and aspirin prodrugs in TCIPA, washed platelets were pre-incubated for 10 min at room temperature with the inhibitors: aspirin, nicotinate, ISAS, ISMNA, ortho and meta (all at a concentration of 500 μM), prior to their introduction into the ultrasound trap. […] The cell cluster-platelet aggregate remained under microscopic observation for further 10 min (the upper time limit established in the current study) under continuous flow conditions. Further experiments were performed with ST0702 salicylate (500 μM).

A further data set concerns P-selectin. Description: Flow cytometry of platelet P-selectin during TCIPA induced by 59M cells. The data set is classed as cell-based, human. The note with it: 300 μM.
In data set [3] the test system is platelet rich plasma (PRP). The experiment in a line: Collagen-induced platelet aggregation in platelet rich plasma (light aggregometry). The format is cell-based, human. The conditions noted are these: for inhibition of collagen induced aggregation by hydrolysis products: 10-300 μM in PRP, collagen 5 μg/ml. How it is done:
(§1) PRP and WP (2.5×10^8 platelets ml^−1) were prepared from blood. Briefly 36 ml whole blood was collected into 4 ml of 3.15% sodium citrate; this was centrifuged at 250 ¥g for 20 min (with gentle acceleration and deceleration). At this point PRP, which had separated from white blood cells and red blood cells, was gently removed. When WP were required this PRP was centrifuged at 700 g for 10 min (with gentle acceleration and deceleration) in the presence of prostacyclin. The platelet-poor plasma (PPP) was removed and the platelet pellet was washed three times with Tyrode's buffer, before being re-suspended in Tyrode's buffer to a concentration of 2.5 ¥108 platelets/ml.
(§2) Platelet aggregation was measured by light aggregometry. […] Aggregation was initiated by the addition of agonists, and monitored by Aggro-Link software for at least 6 min.
(§3) To study the aggregatory potency of ADP, the concentration-response (0.3-10 μM) curves were generated. Collagen at different concentrations (2-5 μg/ml) was also used to induce platelet aggregation. Submaximal concentrations of agonists, i.e. the concentrations that gave approximately 95% of the maximal aggregation were used to study the effects of inhibitors of aggregation. Aspirin and aspirin prodrugs was incubated for various intervals prior to the addition of aggregating agents.
(§4) Eserine (in DMSO, 10 μM, giving a final concentration≦0.25% DMSO, which pilot studies had determined not to affect platelet aggregation) was preincubated with PRP or WP for 5 min in the aggregometer with stirring at 900 r.p.m. before the addition of test compounds (ST0701-05), which were incubated in PRP or WP for a further 10 min prior to the addition of an agonist (10 μM ADP or 5 μg/ml Collagen) to induce platelet aggregation.

The test system of data set [4] is platelet esterases (pNPA hydrolysis in WP). The data set is classed as biochemical, human. The note with it: for effect on NPA/PNA activity of WP or lysed platelets: 10-100 μM. How it is done:
WP, PRP, PPP or lysed WP and 50 mM TrisHCl pH7.4 were incubated on a 96 well plate at 37° C. for 30 min. PNA at a final concentration of 3 mM was added to the plate and the change in absorbance at 405 nm was measured over a period of 10 min.
NPA hydrolyse activity could be due to CE (EC 3.1.1.1), BuChE, acetylcholinesterase (AChE, EC 3.1.1.7) or paraoxanase/arylesterase (PON, EC 3.1.8.1). To identify which esterases were involved in the hydrolysis of PNA, various inhibitors were incubated with the WP, PRP, PPP or lysed WP and 50 mM TrisHCl pH7.4 for 30 min at 37° C. prior to the addition of the PNA and the measurement of the change in absorbance at 405 nm. Physostigmine (100 μM), a cholinesterase inhibitor was used to check if BuChE/AChE played a role in the hydrolysis of PNA. […] PMSF (10-100 μM) was used to determine if serine proteases played any part in the hydrolysis of PNA by platelets. EDTA a calcium chelator was used to investigate the role played by PON esterases. BNPP a CE inhibitor of was used to investigate if carboxylesterases played a role in hydrolysis of PNA by platelets.

In another data set the test system is washed platelets (WP). Description: Collagen-induced platelet aggregation in washed platelets (light aggregometry). The data set is classed as cell-based, human. The note with it: WP, collagen 2 μg/ml, PMSF up to 100 μM. The procedure:
as §1, §2, §3
To study the involvement of plasma BuChE in the activation of ST0701, purified BuChE (3 U/ml) was incubated with WP for 5 min in the aggregometer with stirring at 900 r.p.m. before the addition of the test compounds ST0701 which was incubated with the WP for a further 10 min, prior to the addition of collagen (5 ug/ml).
as §4
Phenylmethylsulphonylfluoride (PMSF) 20, 50 and 100 μM dissolved in EtOH (<0.2% EtOH, which pilot studies had determined not to affect platelet aggregation) was preincubated in WP in the aggregometer for 5 min with stirring at 900 r.p.m. before the addition of test compound ST0702 to the WP, which was further incubated for 10 min prior to the addition of collagen (2 μg/ml) to induce platelet aggregation.

The subject of data set [5] is platelet rich plasma (PRP). The experiment in a line: ADP-induced platelet aggregation in PRP. The conditions noted are these: ODQ 10 μM, ADP 10 μM, PRP. The data set is classed as cell-based, human. How it is done: as §1, §2, §3, §4
1H-[1,2,4]Oxadiazolo[4,3-a]quinoxalin-1-one (ODQ, dissolved in 100% DMSO, used at a final concentration of 10 μM, which gave a final concentration not more than 0.25% DMSO) was preincubated with PRP or WP for 5 min in the aggregometer with stirring at 900 r.p.m. before the addition of test compounds (ST0701-05), which were incubated in PRP or WP for a further 10 min prior to the addition of an agonist (10 μM ADP or 5 μg/ml collagen) to induce platelet aggregation.
Eserine (10 μM) was incubated with PRP for 5 min in the aggregometer with stirring at 900 r.p.m. before the addition of test compound ST0702 salicylate (500 μM), which was incubated in PRP for a further 10 min prior to the addition of the agonist ADP (10 μM) to induce platelet aggregation.

In the next data set the test system is TxB2. Description: TxB2 suppression after single oral gavage dose. The format is in vivo, cynomolgus monkey. The note with it: for TxB2 suppression (TxB2 levels as percentage of baseline), in words: Phase 2A, single oral gavage, ST0702 9.6 mg/kg, aspirin 4.2 mg/kg, 1 and 24 hours post dosing; for TxB2 suppression, % complete: Phase 2B, at 24 hours.
Data set [6] can be described thus: Plasma pharmacokinetics of aspirin and metabolites after single oral gavage dose. The data set is classed as in vivo, cynomolgus monkey. How it is done: The objectives of this study are to determine the comparative clinical efficacy as determined by TxB2 suppression with single oral gavage dose administration of Aspirin, ST0702 and ST0702 Micronised to the cynomolgus monkey. Aspirin pharmacokinetics were compared using Area Under the Curve (AUC) calculations.
The objectives of this study are to determine the comparative pharmacokinetics of ST0702 at 9.6 and 4.8 mg/Kg with single oral gavage dose administration to the cynomolgus monkey and to determine dose-response effects.
Although the half life of the Isosorbide 2 salicylate 5 nicotinate metabolite is very short in-vitro, we investigated the serum taken from Cynomologus Monkeys participating in Study 2B above. The comparative pharmacokinetics of Isosorbide 2 salicylate 5 nicotinate from Monkeys receiving a single oral gavage dose of micronized ST0702 at 9.6 and 4.8 mg/Kg were evaluated. The concentrations of the breakdown products of ISANA were quantified using LCMS methods.
Animals are acclimated to the oral gavage procedure for at least 3 days prior to the commencement of dose formulation administration. Deionized water is administered by oral gavage using a disposable catheter attached to a plastic syringe at a dose volume of 5 mL/kg. Animals are treated at approximately the same time on each dosing day. Dose formulations are administered by oral gavage using a disposable catheter attached to a plastic syringe. Following each daily dose, the gavage tube is rinsed with 6 mL of Ultra Pure water into the animal's stomach. Each animal will be dosed with a clean gavage tube on each dosing occasion. The dosing volume is 10 mL/kg. Each actual volume administered will be based on the most recent practical body weight of each animal. The dose formulations will be stirred continuously during dose administration.
Samples are mixed gently and placed on crushed wet ice until centrifugation, which are carried out as soon as practical. The samples are centrifuged for approximately 10 minutes in a refrigerated centrifuge (approximately 4° C.) at 2700 rpm. The resultant plasma are separated, transferred to uniquely labeled clear polypropylene tubes, and frozen immediately over dry ice and transferred to a freezer set to maintain −80° C. The plasma samples are transferred to the bioanalytical laboratory at the Testing Facility.
Plasma samples are analyzed for concentration of Aspirin, Salicylic Acid and Nicotinic Acid using a qualified analytical procedure. Analysis are performed by LC MS/MS under Analytical Procedure. Data collection is performed using Analyst from AB Sciex. […]

On to `CC(=O)Oc1ccccc1C(=O)O[C@H]1CO[C@H]2[C@@H]1OC[C@H]2OC(=O)c1cccc(CO[N+](=O)[O-])c1` [metanitrate], for which the “inhibition of TCIPA induced by 59M” value is reported as “inhibited” with 59M cells [1] and “able to inhibit” in the data set with 59M cells [1] (listed as Meta). The “inhibition of TCIPA under flow conditions (platelet-tumour cell disruption)” value in the data set on 59M cells [2] is recorded as “did not interfere”. Besides, in the data set with P-selectin, the “59M-mediated increase in platelet surface P-selectin” value is listed as “significantly (P<0.05, n=4) reduce”.

On to `O[C@@H]1CO[C@H]2[C@@H]1OC[C@@H]2O` [Isosorbide], for which the “inhibition of collagen induced aggregation by hydrolysis products” value (“inhibition … by hydrolysis products” below) in [3] was “None of the hydrolysis products significantly inhibited aggregation”.

Regarding `O=C(O)CN(CCN(CC(=O)O)CC(=O)O)CC(=O)O` [EDTA, ethylenediaminetetraacetic acid], in [4], the “effect on NPA activity of WP” value is given as “no effect”.

In the case of `O=S(=O)(F)Cc1ccccc1` [PMSF, phenylmethylsulphonyl fluoride], the “inhibition of NPA activity in WP” value was 50% in [4] (at 10 μM) and “almost completely inhibited” in [4] (at 100 μM). The “effect of PMSF alone on collagen-induced aggregation” value in the data set on washed platelets (WP) is “no significant effect”.

With `O=[N+]([O-])c1ccc(OP(=O)(O)Oc2ccc([N+](=O)[O-])cc2)cc1` [BNPP, bis-p-nitrophylphosphate], in data set [4], the “effect on NPA/PNA activity of WP or lysed platelets” value was “no significant effect”.

As to `O=C(O[C@@H]1CO[C@H]2[C@H]1OC[C@@H]2O)c1ccccc1O` [isosorbide-5-salicylate], in data set [3], the “inhibition … by hydrolysis products” value is listed as “None of the hydrolysis products significantly inhibited aggregation”.

Take `O=c1onc2cnc3ccccc3n12` [ODQ, 1H-[1,2,4]oxadiazolo[4,3-a]quinoxalin-1-one, reference compound]: the “inhibition of ADP induced aggregation when incubated alone” value in [5] was “some inhibition”.

As for `O=C(O[C@H]1CO[C@H]2[C@@H]1OC[C@H]2OC(=O)c1ccccc1O)c1ccccc1O` [isosorbide-2,5-disalicylate], in [3], the “inhibition … by hydrolysis products” value is “None of the hydrolysis products significantly inhibited aggregation”. The “attenuation of aspirin's inhibitory effect on co-incubation” value in data set [3] (co-incubated with aspirin, 50-500 μM, non-significant trend) is no more than 10%.

`O=C(O)c1ccccc1O` [salicylic acid]: the “inhibition … by hydrolysis products” value in data set [3] is reported as “None of the hydrolysis products significantly inhibited aggregation”.

As to `CC(C)NP(=O)(NC(C)C)OP(=O)(NC(C)C)NC(C)C` [Iso-OMPA, tetraisopropylpyrophosphoramide], in data set [4], the “effect on NPA/PNA activity of WP or lysed platelets” value is on record as “no effect”.

As to `CC(=O)Oc1ccccc1C(=O)OC1COC2C(OC(=O)c3cccnc3)COC12` (stereo not shown) [Micronized ST0702, isosorbide-2-aspirinate-5-nicotinate], the “TxB2 suppression (TxB2 levels as percentage of baseline), in words” value is “no difference between aspirin and micronized ST0702” in the data set on TxB2; “as effective as equimolar doses of aspirin” with TxB2 (listed as micronised ISANA). Besides, the figures for the “TxB2 suppression, % complete” value with TxB2 (4.8 mg/Kg oral) and with TxB2 (9.6 mg/Kg oral) were 47% and 70%, respectively. Moreover, the “% of aspirin AUC” value in data set [6] (Phase 2B, Micronised ST0702 equimolar dose vs aspirin 4.2 mg/Kg) turned out to be 62%. Also, the “expected aspirin delivered in-vivo” value in data set [6] (Studies 2A and 2B together, relative to equivalent aspirin) is reported as 58-62%.
